Assay results reported in ChEMBL document CHEMBL4765305, “Elephantopinolide A-P, germacrane-type sesquiterpene lactones from Elephantopus scaber induce apoptosis, autophagy and G2/M phase arrest in hepatocellular carcinoma cells” (Eur J Med Chem, 2020).

Legend:
HepG2 = assay: Anti-hepatoma activity against human HepG2 cells assessed as cell growth inhibition by MTT assay; format: functional, cell-based
Hep 3B2 = assay: Anti-hepatoma activity against human Hep3B cells assessed as cell growth inhibition by MTT assay; format: functional, cell-based

SMILES | IC50 (HepG2) | IC50 (Hep 3B2)
C=C(C(=O)OC)[C@H]1/C=C/[C@](C)(O)C[C@@H]2C=C(C[C@@H]1OC(=O)/C(C)=C\C)C(=O)O2 | > 20 µM | > 20 µM
C=C1C(=O)O[C@H]2CC3=C[C@@H](C[C@@](C)(O)/C=C/[C@H]12)OC3=O | > 20 µM | > 20 µM
C=C(C)C(=O)O[C@H]1CC2=C[C@H](CC(=C)[C@@H](O)[C@H]3OC(=O)C(=C)[C@@H]31)OC2=O | 8.59 µM | 8.79 µM
C=C(C)C(=O)O[C@H]1CC2=C[C@H](C[C@@]3(C)O[C@H]3[C@H]3OC(=O)C(=C)[C@@H]31)OC2=O | 2.55 µM | 4.26 µM
C=C(C)C(=O)OCC1=C2[C@@H](O)CC3=C[C@@H](C/C(C)=C/[C@H]2OC1=O)OC3=O | > 20 µM | > 20 µM
C[C@@H]1C(=O)O[C@H]2CC3=C[C@@H](C[C@@](C)(O)/C=C/[C@@H]21)OC3=O | > 20 µM | > 20 µM
C=C1C(=O)O[C@H]2[C@H]1[C@@H](OC(=O)/C(C)=C\C)CC1=C[C@@H](C[C@@]3(C)O[C@@H]23)OC1=O | 5.99 µM | 3.74 µM
C=C1C(=O)O[C@H]2[C@H]1[C@@H](OC(=O)/C(C)=C\C)CC1=C[C@H](C[C@@]3(C)O[C@@H]23)OC1=O | 2.97 µM | 7.14 µM
